Experimental data from PubChem BioAssay AID1918952 (Molecular Pharmacology Branch, DTP, NCI, 2023).

System: LG0703-F948-PDC complex spheroid viability
Assay: Anticancer human tumor LG0703-F948-PDC patient-derived lung adenocarcinoma cell line growth inhibition
Conditions: for IC50: curve of first compound; for viability, T/C: stronger effect = lower value
How it was run: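 Multicellular complex spheroids of tumor cells with human endothelial cells (HUVEC) and mesenchymal stem cells; the LSD1 inhibitor iadademstat was combined with standard-of-care or investigational agents. Top concentration at or near clinical Cmax, half-log dilutions; final DMSO ≤0.25%.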

[1] = second compound 0.1 µM, first compound 0.00949 µM
[2] = second compound 0.1 µM, first compound 0.03 µM
[3] = second compound 0.1 µM, first compound 0.0949 µM
[4] = second compound 0.1 µM, first compound 0.3 µM
[5] = second compound 0.316 µM, first compound 0.00949 µM
[6] = second compound 0.316 µM, first compound 0.03 µM
[7] = second compound 0.316 µM, first compound 0.0949 µM
[8] = second compound 0.316 µM, first compound 0.3 µM
[9] = second compound 1 µM, first compound 0.00949 µM
[10] = second compound 1 µM, first compound 0.03 µM
[11] = second compound 1 µM, first compound 0.0949 µM
[12] = second compound 1 µM, first compound 0.3 µM
[13] = second compound 3.16 µM, first compound 0.00949 µM
[14] = second compound 3.16 µM, first compound 0.03 µM
[15] = second compound 3.16 µM, first compound 0.0949 µM
[16] = second compound 3.16 µM, first compound 0.3 µM
[17] = second compound 10 µM, first compound 0.00949 µM
[18] = second compound 10 µM, first compound 0.03 µM
[19] = second compound 10 µM, first compound 0.0949 µM
[20] = second compound 10 µM, first compound 0.3 µM
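Further: spheroids exposed to agents for seven days before readout.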
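Wherever viability, T/C is given: 100% = DMSO vehicle control wells as normalization base.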

## CCN(c1cc(-c2ccc(CN3CCOCC3)cc2)cc(C(=O)NCc2c(C)cc(C)[nH]c2=O)c1C)C1CCOCC1 + NC1CC1c1ccc(-c2cccc(O)c2)cc1
Second compound 0.1 µM
  IC50: > 3 µM
Second compound 0.316 µM
  IC50: > 3 µM
Second compound 1 µM
  IC50: > 3 µM
Second compound 3.16 µM
  IC50: > 3 µM
Second compound 10 µM
  IC50: > 3 µM
[1]
  viability, T/C: 104%
[2]
  viability, T/C: 113%
[3]
  viability, T/C: 93.7%
[4]
  viability, T/C: 105%
Second compound 0.1 µM, first compound 0.949 µM
  viability, T/C: 107%
Second compound 0.1 µM, first compound 3 µM
  viability, T/C: 105%
[5]
  viability, T/C: 112%
[6]
  viability, T/C: 93.9%
[7]
  viability, T/C: 101%
[8]
  viability, T/C: 93.6%
Second compound 0.316 µM, first compound 0.949 µM
  viability, T/C: 102%
Second compound 0.316 µM, first compound 3 µM
  viability, T/C: 94.9%
[9]
  viability, T/C: 89.3%
[10]
  viability, T/C: 98.8%
[11]
  viability, T/C: 95.6%
[12]
  viability, T/C: 96.2%
Second compound 1 µM, first compound 0.949 µM
  viability, T/C: 94.7%
Second compound 1 µM, first compound 3 µM
  viability, T/C: 93.2%
[13]
  viability, T/C: 93.7%
[14]
  viability, T/C: 95.6%
[15]
  viability, T/C: 93.7%
[16]
  viability, T/C: 85.1%
Second compound 3.16 µM, first compound 0.949 µM
  viability, T/C: 99.7%
Second compound 3.16 µM, first compound 3 µM
  viability, T/C: 95.2%
[17]
  viability, T/C: 105%
[18]
  viability, T/C: 91.9%
[19]
  viability, T/C: 84.6%
[20]
  viability, T/C: 81.6%
Second compound 10 µM, first compound 0.949 µM
  viability, T/C: 81.8%
Second compound 10 µM, first compound 3 µM
  viability, T/C: 86.1%

## Nc1ncn(C2CC(O)C(CO)S2)c(=O)n1 (stereo not given) + NC1CC1c1ccc(-c2cccc(O)c2)cc1
Second compound 0.1 µM
  IC50: > 0.3 µM
Second compound 0.316 µM
  IC50: > 0.3 µM
Second compound 1 µM
  IC50: > 0.3 µM
Second compound 3.16 µM
  IC50: > 0.3 µM
Second compound 10 µM
  IC50: > 0.3 µM
Second compound 0.1 µM, first compound 0.000949 µM
  viability, T/C: 114%
Second compound 0.1 µM, first compound 0.003 µM
  viability, T/C: 102%
[1]
  viability, T/C: 104%
[2]
  viability, T/C: 108%
[3]
  viability, T/C: 108%
[4]
  viability, T/C: 86.2%
Second compound 0.316 µM, first compound 0.000949 µM
  viability, T/C: 106%
Second compound 0.316 µM, first compound 0.003 µM
  viability, T/C: 92.7%
[5]
  viability, T/C: 91%
[6]
  viability, T/C: 107%
[7]
  viability, T/C: 102%
[8]
  viability, T/C: 81.1%
Second compound 1 µM, first compound 0.000949 µM
  viability, T/C: 117%
Second compound 1 µM, first compound 0.003 µM
  viability, T/C: 105%
[9]
  viability, T/C: 102%
[10]
  viability, T/C: 108%
[11]
  viability, T/C: 82.4%
[12]
  viability, T/C: 84.8%
Second compound 3.16 µM, first compound 0.000949 µM
  viability, T/C: 114%
Second compound 3.16 µM, first compound 0.003 µM
  viability, T/C: 101%
[13]
  viability, T/C: 90.8%
[14]
  viability, T/C: 104%
[15]
  viability, T/C: 100%
[16]
  viability, T/C: 71.5%
Second compound 10 µM, first compound 0.000949 µM
  viability, T/C: 104%
Second compound 10 µM, first compound 0.003 µM
  viability, T/C: 94.7%
[17]
  viability, T/C: 96.8%
[18]
  viability, T/C: 105%
[19]
  viability, T/C: 103%
[20]
  viability, T/C: 77.4%
